According to the supplement of paper PMC4862054:

Columns and labels:
Settings in all cases: incubation time: 72 h
HDQ-P1 [1] = test: normalised response (% of control), CellTiter-Glo; higher = more viable cells (100 = DMSO, 0 = benzethonium chloride kill control)
Protocol: (§1)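 DSRT, 72 h incubation, CellTox Green / CellTiter-Glo readout. Signal is normalised to DMSO and benzethonium chloride controls. Value is the normalised response at dose 3.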

HCC1143 [2] = test: as above
Protocol: as §1

CAL-120 [3] = test: as above
Protocol: as §1

BT-549 [4] = test: as above
Protocol: as §1

MCF-10A [5] = test: as above
Protocol: as §1

Hs578T [6] = test: as above
Protocol: as §1

MDA-MB-436 [7] = test: as above
Protocol: as §1

MDA-MB-453 [8] = test: as above
Protocol: as §1

BT-474 [9] = test: as above
Protocol: as §1

CAL-51 [10] = test: as above
Protocol: as §1

CAL-85-1 [11] = test: as above
Protocol: as §1

CAL-148 [12] = test: as above
Protocol: as §1

MFM-223 [13] = test: as above
Protocol: as §1

MDA-MB-231 [14] = test: as above
Protocol: as §1

DU-4475 [15] = test: as above
Protocol: as §1

SK-BR-3 = test: as above
Protocol: as §1

HCC1599 [16] = test: as above
Protocol: as §1

HCC1937 [17] = test: as above
Protocol: as §1

MDA-MB-468 [18] = test: as above
Protocol: as §1

HDQ-P1 [19] = test: normalised response (% of control), CellTox Green; higher = less cell death (100 = DMSO, 0 = benzethonium chloride kill control)
Method in brief: (§2)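 In 384-well plates holding compound at 5 concentrations in 10-fold steps over a 10,000-fold range specific to each compound, breast cancer cell lines were seeded as 20 µl suspension and incubated 72 h. CellTox Green fluorescence was measured at 485/520 nm, after which CellTiter-Glo luminescence was measured following 10 min at room temperature. Plate signals were normalised to 0.1 % DMSO (100) and a positive kill control (0), and each value is the normalised signal at a single concentration.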

HCC1143 [20] = test: as above
Method in brief: as §2

CAL-120 [21] = test: as above
Method in brief: as §2

BT-549 [22] = test: as above
Method in brief: as §2

MCF-10A [23] = test: as above
Method in brief: as §2

Hs578T [24] = test: as above
Method in brief: as §2

MDA-MB-436 [25] = test: as above
Method in brief: as §2

MDA-MB-453 [26] = test: as above
Method in brief: as §2

BT-474 [27] = test: as above
Method in brief: as §2

CAL-51 [28] = test: as above
Method in brief: as §2

CAL-85-1 [29] = test: as above
Method in brief: as §2

CAL-148 [30] = test: as above
Method in brief: as §2

MFM-223 [31] = test: as above
Method in brief: as §2

MDA-MB-231 [32] = test: as above
Method in brief: as §2

DU-4475 [33] = test: as above
Method in brief: as §2

HCC1599 [34] = test: as above
Method in brief: as §2

HCC1937 [35] = test: as above
Method in brief: as §2

MDA-MB-468 [36] = test: as above
Method in brief: as §2

| Structure (SMILES) | normalised response (HDQ-P1 [1]) [%] | normalised response (HCC1143 [2]) [%] | normalised response (CAL-120 [3]) [%] | normalised response (BT-549 [4]) [%] | normalised response (MCF-10A [5]) [%] | normalised response (Hs578T [6]) [%] | normalised response (MDA-MB-436 [7]) [%] | normalised response (MDA-MB-453 [8]) [%] | normalised response (BT-474 [9]) [%] | normalised response (CAL-51 [10]) [%] | normalised response (CAL-85-1 [11]) [%] | normalised response (CAL-148 [12]) [%] | normalised response (MFM-223 [13]) [%] | normalised response (MDA-MB-231 [14]) [%] | normalised response (DU-4475 [15]) [%] | normalised response (SK-BR-3) [%] | normalised response (HCC1599 [16]) [%] | normalised response (HCC1937 [17]) [%] | normalised response (MDA-MB-468 [18]) [%] | normalised response (HDQ-P1 [19]) [%] | normalised response (HCC1143 [20]) [%] | normalised response (CAL-120 [21]) [%] | normalised response (BT-549 [22]) [%] | normalised response (MCF-10A [23]) [%] | normalised response (Hs578T [24]) [%] | normalised response (MDA-MB-436 [25]) [%] | normalised response (MDA-MB-453 [26]) [%] | normalised response (BT-474 [27]) [%] | normalised response (CAL-51 [28]) [%] | normalised response (CAL-85-1 [29]) [%] | normalised response (CAL-148 [30]) [%] | normalised response (MFM-223 [31]) [%] | normalised response (MDA-MB-231 [32]) [%] | normalised response (DU-4475 [33]) [%] | normalised response (HCC1599 [34]) [%] | normalised response (HCC1937 [35]) [%] | normalised response (MDA-MB-468 [36]) [%] |
| --- | --- | --- | --- | --- | --- | --- | --- | --- | --- | --- | --- | --- | --- | --- | --- | --- | --- | --- | --- | --- | --- | --- | --- | --- | --- | --- | --- | --- | --- | --- | --- | --- | --- | --- | --- | --- | --- |
| CC(=O)O[C@H]1C(=O)[C@@]2(C)[C@H]([C@H](OC(=O)c3ccccc3)[C@]3(O)C[C@H](OC(=O)[C@H](O)[C@@H](NC(=O)c4ccccc4)c4ccccc4)C(C)=C1C3(C)C)[C@]1(OC(C)=O)CO[C@@H]1C[C@@H]2O [Paclitaxel] (10 nM) | 69.1 | 42.3 | 70.1 | 34 | 52.6 | 43.3 | 43 | 80.2 | 60.3 | 52.7 | 31 | 42.7 | 61.6 | 62.9 | 89 | 16.9 | 80.5 | 68.2 | 28.7 | 87.9 | 88.4 | 89.9 | 72.5 | 78.9 | 34.1 | -40.2 | 92.9 | 74.6 | 19.9 | 20.9 | 39.4 | 59.4 | 41 | 97.6 | 91.5 | 86.7 | 41.3 |
| CC(C)C[C@H](NC(=O)[C@H](Cc1ccccc1)NC(=O)c1cnccn1)B(O)O [Bortezomib] (10 nM) | 61.7 | 74.7 | 74.6 | 10.1 | 113 | 66 | 35.6 | 69.2 | 44.5 | 96.8 | 12.3 | 98.8 | 17.6 | 69.3 | 88.6 | 30 | 89.7 | 64.8 | 2.63 | 75.7 | 105 | 88 | 97.2 | 74.6 | 71 | 72.3 | 109 | 92 | 110 | 16.3 | 87.2 | 82 | 70.5 | 111 | 101 | 61.9 | -99.2 |
| CCOc1cc2ncc(C#N)c(Nc3ccc(OCc4ccccn4)c(Cl)c3)c2cc1NC(=O)/C=C/CN(C)C [Neratinib] (10 nM) | 83.5 | 97.3 | 104 | 97.9 | 98.1 | 99.2 | 99.7 | 78.3 | 101 | 91.5 | 102 | 101 | 101 | 100 | 105 | 37.4 | 112 | 95.1 | 91.7 | 98.1 | 103 | 104 | 111 | 116 | 88.5 | 54.2 | 108 | 93.4 | 110 | 112 | 104 | 94.8 | 120 | 108 | 104 | 102 | 126 |
| O=C(c1ccc(OCCN2CCCCC2)cc1)c1c(-c2ccc(O)cc2)sc2cc(O)ccc12 [Raloxifene] (100 nM) | 106 | 109 | 99.1 | 98.3 | 103 | 106 | 99.9 | 99.7 | 101 | 87.8 | 104 | 107 | 104 | 105 | 100 | 104 | 100 | 104 | 98.7 | 90.1 | 99.7 | 98.8 | 92.5 | 93.2 | 94.3 | 107 | 107 | 104 | 97.2 | 98.3 | 101 | 91.7 | 98.8 | 103 | 92.4 | 108 | 102 |
